These are literature values, as cited in US5707615A, “Method of treating HIV infections with anti-viral formulations” (Merrell Pharmaceuticals Inc., priority 1997, dated 1998).

One data set concerns HIV. Particulars: cited from earlier work.
The test system of the next data set is influenza. As to conditions: cited from earlier work.

For the compound `O=CC[C@@H](O)[C@H](O)[C@H](O)CO` [2-deoxy-D-glucose], the “expression of HIV glycoproteins and formation of syncytia” value in the data set on HIV was “inhibit expression of HIV glycoproteins and block the formation of syncytia”. In addition, the viral protein glycosylation entry in the data set with influenza is reported as “inhibited viral protein glycosylation”.

On to 2-deoxy-2-fluoroglucose, for which the viral protein glycosylation entry with influenza is “inhibited viral protein glycosylation”.
